Measured values taken from patent publication US20160287615A1, “NOVEL ENCAPSULATION OF FLUORESCENT, PHOTO-SENSITIVE, OR OXYGEN-SENSITIVE ACTIVE INGREDIENT FOR TOPICAL APPLICATION” (BioPharmX, Inc., priority 2015, published 2016).
Structures can show the parent of a compound that is named as a salt.

Tests used:
[1] = Fluorescence microscopy of compositions under UV fluorescent lamp illumination; format: physicochemical; settings: 450 nm excitation wavelength
Description: FIGS. 4a and 4b are images of the fluorescence given off by different compositions in response to illumination with a UV fluorescent lamp. The images of FIGS. 4a and 4b were captured using a digital camera connected to a microscope.
FIGS. 5a and 5b are images of the fluorescence given off by different compositions in response to illumination with a UV fluorescent lamp. The images of FIGS. 5a and 5b were captured using a digital camera connected to a microscope.
The composition includes minocycline contained in a plurality of Mg2CO3 tubular microparticles with a concentration of 1:100 of minocycline to Mg2CO3 tubular microparticles (10 milligrams of minocycline per gram of Mg2CO3 tubular microparticles).
The composition shown in FIG. 4b was made by dissolving minocycline HCl in methyl alcohol at a concentration of 10 mg/ml. A plurality of tubular microparticles comprising Mg2CO3 was added to the solution. Microscope slides were prepared with minocycline HCl (shown in FIG. 4a) and the prepared composition with a plurality of tubular microparticles described in this paragraph (shown in FIG. 4b).
Fluorescence can be an indicator of photo-initiated degradation of some antibiotics, including minocycline.

[2] = 10 h
Description: Additional data was collected with a high performance liquid chromatography (HPLC) machine for two samples. The first sample was minocycline HCl and the second sample comprised a plurality of microparticles that contained minocycline HCl. […] Following exposure of both samples to ultraviolet illumination for 10 hours, an HPLC machine was used to assess the level of degradation of the minocycline active ingredient in both samples.

- fluorescence emission wavelength [1]: approximately 670 nm
- fluorescence observed by fluorescence microscopy ([1]; UV fluorescent lamp illumination, microscope magnification at 10 times): showed fluorescence emission
- degradation of the minocycline active ingredient [2]: 4.3%
SMILES: CN(C)c1ccc(O)c2c1C[C@H]1C[C@H]3[C@H](N(C)C)C(O)=C(C(N)=O)C(=O)[C@@]3(O)C(O)=C1C2=O [minocycline HCl]
